Measurements from US20260373164A1, “4(RS)-4-F4-NEUROPROSTANE DERIVATIVES (4-F4T-NEUROP) AND THEIR USE IN TREATING VENTILATOR INDUCED DIAPHRAGMATIC DYSFUNCTION AND OTHER DISEASES” (INSTITUT NATIONAL DE LA SANTÉ ET DE LA RECHERCHE MÉDICALE, priority 2022, published 2026).
Entries after “also recorded” stand apart in the source; their conditions may differ.

Assays:
piglet diaphragm (VIDD) = assay: Trans-diaphragmatic pressure (Pdi)-frequency relationship after 72 hours of mechanical ventilation in piglets; assay type: in vivo; conditions: for prevention of VIDD in porcine model: general statement, piglets
Method: As previously described^18,25, twelve piglets (15-20 kg) were separated in two groups of six animals/each. In both groups, oxygenation was maintained with a fraction of inspired oxygen (FIO2) ranging from 25 to 35%, tidal volume between 10 and 12 ml·kg^−1 body weight and breathing frequency from 15 to 30 cycles/min to maintain normocapnia. In the first group (MV group), piglets were mechanically ventilated using CMV, with a positive end-expiratory pressure level at 5 cm H2O. The absence of spontaneous breathing was verified on the ventilator trend graphs, and the diaphragm electromyographic activity was measured to ensure the absence of diaphragm electrical activity. In the second group (control group), piglets were ventilated using ASV, with settings in phase with the piglet body weight (inspiratory flow trigger at 0.3 L·min^−1, percentage of mechanical ventilation between 100 and 150%, positive end-expiratory pressure level at 5 cm H2O, and expiratory trigger at 25% of the peak inspiratory flow). The diaphragm electromyographic activity was assessed to verify that piglets could breathe spontaneously. Both groups received the same care, except for the MV mode.
Briefly, piglets were anesthetized by intravenous injection of 5-6 mg kg^−1 pentobarbital sodium, intubated with a cuffed endotracheal tube and mechanically ventilated (Galileo®; Hamilton Medical AG, Rhazuns, Switzerland). Anesthesia was maintained with continuous intravenous infusion of 15-20 mg·kg^−1 propofol, 0.1-0.3 mg·kg^−1 midazolam and 3-4 mg·kg^−1·h^−1 ketamine. The level of sedation was monitored by using a bispectral index system (BIS®; Aspect, Norwood, MA). Heating pads were employed, as needed, to maintain the normal body temperature of 38.5-39.5 °C. […]
Arterial carbon dioxide pressure was monitored using a capnograph (Deltatrac®; Datex-Ohmeda, Helsinki, Fin-land) and verified by arterial blood gas analysis (iSTAT®; Abbott, Abbott Park, IL). […]
The diaphragm contractile function was assessed in vivo by measuring the transdiaphragmatic pressure (Pdi)^18. […]

calstabin1/RyR1 complex = assay: RyR1 biochemical analysis (immunoprecipitation): oxidation, phosphorylation, calstabin1 interaction; assay type: in vivo, mouse; conditions: for RyR function: associated with VIDD prevention in the murine and porcine models; for RyR oxidation, and phosphorylation: statement in discussion for both compounds
Method: Muscle biopsies were homogenized in 150 μl of buffer containing 5% SDS, 5% beta-mercaptoethanol, 10% glycerol, 10 mM EDTA and 50 mM Tris/HCl buffer (pH=8.0). Each sample was immediately denatured at 90 °C for 4 min. After centrifugation (5000 rpm) at 4 °C, supernatant protein concentrations were measured in duplicate using the BCA protein assay, equilibrated at the same concentration by dilution with loading buffer and aliquoted at 2 μg/μl. RyR1 was immunoprecipitated from 250 μg of homogenate using an anti-RyR antibody (4 μg RyR1-1327) in 0.5 ml of a modified RIPA buffer (50 mM Tris-HCl pH 7.4, 0.9% NaCl, 5.0 mM NaF, 1.0 mM Na3VO4, 1% Triton-X100, and protease inhibitors) for 1 hr at 4 °C. The immune complexes were incubated with protein A Sepharose beads (Amersham Pharmacia) at 4 °C for 1 hr and the beads were washed three times with buffer. Proteins were separated on SDS-PAGE gels (4-20% gradient) and transferred onto nitrocellulose membranes for 2 hr at 200 mA (SemiDry transfer blot, Bio-Rad). To prevent non-specific antibody binding, the membranes were incubated with blocking solution (LICOR Biosciences) and washed with Tris-buffered saline with 0.1% Tween-20.
Blots were respectively incubated with primary antibody to RyR1 (RyR1-1327, an affinity-purified rabbit polyclonal antibody raised against a KLH-conjugated peptide with the amino acid sequence CAEPDTDYENLRRS, corresponding to residues 1327-1339 of mouse skeletal RyR1, with an additional cysteine residue added to the amino terminus), and affinity purified with the unconjugated peptide. The inventors also used antibody to calstabin1 (1:2500 in blocking buffer, LICOR Biosciences); phospho-epitope-specific antibody to human RyR2 phosphorylated on Ser-2808 (1:5,000), which detects PKA-phosphorylated mouse RyR1 (on Ser-2844) and RyR2 (on Ser-2808); antibody to S-nitrosylated cysteine residues (1:1000, Sigma). To determine RyR1 oxidation, the immunoprecipitate was treated with 2, 4-dinitrophenyl hydrazine, and the derivatized carbonyls were detected using an OxyBlot protein oxidation detection Kit (catalog S7150, Chemicon International Inc.). After three washes, membranes were incubated with infrared-labeled secondary antibodies. Control samples were analyzed on each gel for normalization and total levels of RyR1 were not different between groups.
Diaphragm samples from the above experiments were frozen and solubilized to further investigate the biochemical properties of the RyR1 macromolecular complex.

CC/C=C\C[C@@H]1[C@H](/C=C/C(O)CCC(=O)O)[C@@H](O)C[C@H]1O (mixture of isomers) [VB558, (E)-6-((1S,2R,3R,5S)-3,5-dihydroxy-2-((Z)-pent-2-en-1-yl)cyclopentyl)-4-hydroxyhex-5-enoic Acid] was tested, and the “reduction of trans-diaphragmatic pressure (Pdi) / VIDD in piglets” value (piglet diaphragm (VIDD); IV bolus 0.250 mg·kg^−1 then 0.025 mg·kg^−1 every 12 hours, 72 h MV) was “prevents VIDD in piglets after 72 hours of ventilation; also recorded: fully prevented”, the “prevention of VIDD in porcine model” value (piglet diaphragm (VIDD)) was “prevent with a high efficiency VIDD” and the RyR function (calstabin1/RyR1 complex) was “normalization of RyR function”. For the same compound, the “RyR oxidation, and phosphorylation” value (calstabin1/RyR1 complex) was “prevent RyR oxidation, and phosphorylation”.

CC/C=C\C/C=C\C/C=C\C[C@@H]1[C@H](/C=C/C(O)CCC(=O)O)[C@@H](O)C[C@H]1O (mixture of isomers) [Compound 4F4t-NeuroP, 4(RS)-4-F4t-Neuroprostane] was tested, and the “prevention of VIDD in porcine model” value (piglet diaphragm (VIDD)) was “prevent with a high efficiency VIDD”, the RyR function (calstabin1/RyR1 complex) was “normalization of RyR function” and the “biochemical signature of leaky RyR1 (oxidation, ser2844 phosphorylation, calstabin1 depletion)” value (calstabin1/RyR1 complex; mouse diaphragm after 6 h MV, 4F4t-NeuroP IV) was “this post-translational remodeling was prevented; also recorded: fully prevented”. The calstabin1/RyR1 complex (calstabin1/RyR1 complex; mouse diaphragm after 6 h MV, calstabin1/RyR1 interaction) was “Stabilizes the Complex Calstabin1/RyR1” and the “RyR oxidation, and phosphorylation” value (calstabin1/RyR1 complex) was “prevent RyR oxidation, and phosphorylation”.
